Experimental data published in ChEMBL document CHEMBL1143751, “Isosteric probes provide structural requirements essential for detoxification of the phytoalexin brassinin by the fungal pathogen Leptosphaeria maculans” (2007).
Calls of active or inactive are those of the source. No cut-off for these calls is given here.

Assays:
[1] = tested on: Plenodomus lingam; assay: Specific activity of Leptosphaeria maculans brassinin oxidase
[2] = tested on: Plenodomus lingam; assay: Antifungal activity against Leptosphaeria maculans BJ 125 at 0.20 mM; assay type: functional
[3] = tested on: Plenodomus lingam; assay: Antifungal activity against Leptosphaeria maculans BJ 125 at 0.10 mM; assay type: functional
[4] = tested on: Plenodomus lingam; assay: Antifungal activity against Leptosphaeria maculans BJ 125 at 0.50 mM; assay type: functional

How did the Activity [1] turn out when `CSC(=O)NCc1c[nH]c2ccccc12` was run?
The Activity was 2150 mU/mg.

How did the Activity [1] turn out when `COC(=O)CCc1c[nH]c2ccccc12` was run?
The Activity was “inactive”.

Which results are given for `CSC(=S)N(C)Cc1c[nH]c2ccccc12`?
inhibition at 200 µM [2]: 100%; Activity [1]: inactive; inhibition at 100 µM [3]: 74%; inhibition at 500 µM [4]: 100%

With `CNC(=O)CCc1c[nH]c2ccccc12` as the compound, how does the Activity [1] read?
Its Activity is “inactive”.

For `CNC(=S)NCc1c[nH]c2ccccc12`, which Activity [1] is on record?
Its Activity is 2560 mU/mg.

For `CSC(=S)OCCc1c[nH]c2ccccc12`, which Activity [1] is on record?
The Activity was “inactive”.

How did the Activity [1] turn out when `CSC(=S)NCCc1c[nH]c2ccccc12` was run?
The Activity was “inactive”.

What does the source list for `CSC(=S)NCc1c[nH]c2ccccc12` [BRASSININ]?
inhibition at 200 µM [2]: 45%; Activity [1]: 835 mU/mg; Activity [3]: inactive; inhibition at 500 µM [4]: 100%

For `CSC(=S)NCc1cn(C)c2ccccc12`, which Activity [1] is on record?
Its Activity is 944 mU/mg.

`CNC(=O)NCc1c[nH]c2ccccc12` was tested. Which Activity [1] did it give?
The Activity was 3280 mU/mg.

Which results are given for `CCCSC(=S)NCc1c[nH]c2ccccc12`?
inhibition at 200 µM [2]: 100%; Activity [1]: inactive; inhibition at 100 µM [3]: 78%; inhibition at 500 µM [4]: 100%

With `CC(=O)NCc1c[nH]c2ccccc12` as the compound, how does the Activity [1] read?
Its Activity is “inactive”.

`CCSC(=S)NCc1c[nH]c2ccccc12` was tested. Which inhibition at 200 µM [2] did it give?
Its inhibition at 200 µM is 76%.

And the Activity [1]?
The Activity was 434 mU/mg.

And the inhibition at 100 µM [3]?
The inhibition at 100 µM was 28%.

And the inhibition at 500 µM [4]?
Its inhibition at 500 µM is 100%.

How did the Activity [1] turn out when `COC(=O)N(C)Cc1c[nH]c2ccccc12` was run?
The Activity was “inactive”.

For `COC(=O)NCc1c[nH]c2ccccc12`, which Activity [1] is on record?
The Activity was 4060 mU/mg.
